Test results: US7238694B2, “Rifamycin imino derivatives effective against drug-resistant microbes” (Cumbre Pharmaceuticals, Inc., priority 2004, dated 2007)
Values after ≈ are worked out from the molar mass of the structure shown.

Tests used:
Format in all cases: cell-based
[1] = system: Staphylococcus aureus ATCC29213; experiment: MIC, microbroth dilution (NCCLS); details: rifS strain, Cation-Adjusted Mueller-Hinton Broth, 37° C., read-out: MIC
[2] = system: Staphylococcus aureus ATCC29213 rpoB^H418Y; experiment: microbe, parasite or virus in culture; details: Staphylococcus aureus, ATCC29213; rifR strain; Cation-Adjusted Mueller-Hinton Broth, 37° C.; read-out: MIC
[3] = system: Staphylococcus aureus MT1222 gyrA^A116E grlB^S80F; experiment: microbe, parasite or virus in culture; details: cipR strain, Cation-Adjusted Mueller-Hinton Broth, 37° C., read-out: MIC
[4] = system: Staphylococcus epidermidis ATCC12228; experiment: MIC, microbroth dilution (NCCLS); details: rifS strain, Cation-Adjusted Mueller-Hinton Broth, 37° C., read-out: MIC
[5] = system: Streptococcus pneumoniae ATCC6303; experiment: MIC, microbroth dilution (NCCLS); details: rifS strain, THY Broth with 1 mg/mL catalase, 5% CO2, 37° C., read-out: MIC
[6] = system: Streptococcus pyogenes ATCC19615; experiment: MIC, microbroth dilution (NCCLS); details: rifS strain, THY Broth, 37° C., read-out: MIC
[7] = system: Haemophilus influenzae ATCC10211; experiment: MIC, microbroth dilution (NCCLS); details: rifS strain, BHI Broth with NAD and hematin, 37° C., read-out: MIC

In the case of COc1c(N2CCC(N(C)/N=C/c3c4c(O)c5c(O)c(C)c6c(c5c3O)C(=O)[C@@](C)(O/C=C/[C@H](OC)[C@@H](C)[C@@H](OC(C)=O)[C@H](C)[C@H](O)[C@H](C)[C@@H](O)[C@@H](C)/C=C/C=C(/C)C(=O)N4)O6)C2)c(F)cc2c(=O)c(C(=O)O)cn(C3CC3)c12 (mixture of isomers) [Example 22, (R/S)-3-[1-(3-Carboxy-1-cyclopropyl-6-fluoro-8-methoxy-4-oxo-1,4-dihydroquinolin-7-yl)-pyrrolidinyl-3-methylhydrazino-methylenyl]-rifamycin SV], the MIC [1] is reported as 0.008 to 1 µg/mL (≈ 0.00728 to 0.911 µM), the MIC [2] is reported as 0.06 to 16 µg/mL (≈ 0.0546 to 14.6 µM) and the MIC [3] is reported as 0.008 to 0.125 µg/mL (≈ 0.00728 to 0.114 µM). For the same molecule, the MIC [4] was 0.008 to 0.1 µg/mL (≈ 0.00728 to 0.0911 µM), the MIC [5] was 0.008 to 0.06 µg/mL (≈ 0.00728 to 0.0546 µM) and the MIC [6] was 0.008 to 0.03 µg/mL (≈ 0.00728 to 0.0273 µM). The MIC [7] was 0.125 to 4 µg/mL (≈ 0.114 to 3.64 µM).
For COc1c(N2CCN(/N=C/c3c4c(O)c5c(O)c(C)c6c(c5c3O)C(=O)[C@@](C)(O/C=C/[C@H](OC)[C@@H](C)[C@@H](OC(C)=O)[C@H](C)[C@H](O)[C@H](C)[C@@H](O)[C@@H](C)/C=C/C=C(/C)C(=O)N4)O6)C(C(=O)O)C2)c(F)cc2c(=O)c(C(=O)O)cn(C3CC3)c12 (mixture of isomers) [Example 23, (R/S)-3-[4-(3-Carboxy-1-cyclopropyl-6-fluoro-8-methoxy-4-oxo-1,4-dihydroquinolin-7-yl)-3-carboxy-piperazin-1-yl-aminomethylenyl]-rifamycin SV], the MIC [1] was 0.008 to 1 µg/mL (≈ 0.00709 to 0.886 µM), the MIC [2] was 0.06 to 16 µg/mL (≈ 0.0532 to 14.2 µM) and the MIC [3] was 0.008 to 0.125 µg/mL (≈ 0.00709 to 0.111 µM). It also gave an MIC [4] of 0.008 to 0.1 µg/mL (≈ 0.00709 to 0.0886 µM), an MIC [5] of 0.008 to 0.06 µg/mL (≈ 0.00709 to 0.0532 µM) and an MIC [6] of 0.008 to 0.03 µg/mL (≈ 0.00709 to 0.0266 µM). The MIC [7] was 0.125 to 4 µg/mL (≈ 0.111 to 3.55 µM).
For CO[C@H]1/C=C/O[C@@]2(C)Oc3c(C)c(O)c4c(O)c(c(/C=N/N5CCN(C6CCN(c7nc8c(cc7F)c(=O)c(C(=O)O)cn8-c7ccc(F)cc7F)C6)CC5)c(O)c4c3C2=O)NC(=O)/C(C)=C\C=C\[C@H](C)[C@H](O)[C@@H](C)[C@@H](O)[C@@H](C)[C@H](OC(C)=O)[C@@H]1C (mixture of isomers) [Example 34], the MIC [1] was 0.008 to 1 µg/mL (≈ 0.00669 to 0.836 µM), the MIC [2] was 0.06 to 16 µg/mL (≈ 0.0502 to 13.4 µM) and the MIC [3] was 0.008 to 0.125 µg/mL (≈ 0.00669 to 0.104 µM). The MIC [4] was 0.008 to 0.1 µg/mL (≈ 0.00669 to 0.0836 µM), the MIC [5] was 0.008 to 0.06 µg/mL (≈ 0.00669 to 0.0502 µM) and the MIC [6] was 0.008 to 0.03 µg/mL (≈ 0.00669 to 0.0251 µM). For the same molecule, the MIC [7] was 0.125 to 4 µg/mL (≈ 0.104 to 3.34 µM).
CO[C@H]1/C=C/O[C@@]2(C)Oc3c(C)c(O)c4c(O)c(c(/C=N/N5CCN(c6nc7c(cc6F)c(=O)c(C(=O)O)cn7C6CC6)CC5)c(O)c4c3C2=O)NC(=O)/C(C)=C\C=C\[C@H](C)[C@H](O)[C@@H](C)[C@@H](O)[C@@H](C)[C@H](OC(C)=O)[C@@H]1C [Example 35, 3-[4-(3-Carboxy-1-cyclopropyl-6-fluoro-4-oxo-1,4-dihydro-[1,8]naphthyridine-7-yl)-piperazin-1-yl-aminomethylenyl]-rifamycin SV] gave an MIC [1] of 0.008 to 1 µg/mL (≈ 0.00758 to 0.948 µM), an MIC [2] of 0.06 to 16 µg/mL (≈ 0.0569 to 15.2 µM) and an MIC [3] of 0.008 to 0.125 µg/mL (≈ 0.00758 to 0.118 µM). For the same molecule, the MIC [4] was 0.008 to 0.1 µg/mL (≈ 0.00758 to 0.0948 µM), the MIC [5] was 0.008 to 0.06 µg/mL (≈ 0.00758 to 0.0569 µM) and the MIC [6] was 0.008 to 0.03 µg/mL (≈ 0.00758 to 0.0284 µM). For the same molecule, the MIC [7] was 0.125 to 4 µg/mL (≈ 0.118 to 3.79 µM).
Molecule CO[C@H]1/C=C/O[C@@]2(C)Oc3c(C)c(O)c4c(O)c(c(/C=N/NC5CCN(c6nc7c(cc6F)c(=O)c(C(=O)O)cn7-c6ccc(F)cc6F)C5)c(O)c4c3C2=O)NC(=O)/C(C)=C\C=C\[C@H](C)[C@H](O)[C@@H](C)[C@@H](O)[C@@H](C)[C@H](OC(C)=O)[C@@H]1C (mixture of isomers) [Example 9, (R/S)-3-[1-[3-Carboxy-1-(2,4-difluoro-phenyl)-6-fluoro-4-oxo-1,4-dihydro-[1,8]naphthyridin-7-yl]-pyrrolidinyl-3-hydrazinomethylenyl]rifamycin SV] has an MIC [1] of 0.008 to 1 µg/mL (≈ 0.0071 to 0.887 µM), an MIC [2] of 0.06 to 16 µg/mL (≈ 0.0532 to 14.2 µM) and an MIC [3] of 0.008 to 0.125 µg/mL (≈ 0.0071 to 0.111 µM). The MIC [4] was 0.008 to 0.1 µg/mL (≈ 0.0071 to 0.0887 µM), the MIC [5] was 0.008 to 0.06 µg/mL (≈ 0.0071 to 0.0532 µM) and the MIC [6] was 0.008 to 0.03 µg/mL (≈ 0.0071 to 0.0266 µM). It also gave an MIC [7] of 0.125 to 4 µg/mL (≈ 0.111 to 3.55 µM).
Work on CO[C@H]1/C=C/O[C@@]2(C)Oc3c(C)c(O)c4c(O)c(c(/C=N/N5CCN(c6cc7c(cc6F)c(=O)c(C(=O)O)cn7C6CC6)CC5)c(O)c4c3C2=O)NC(=O)/C(C)=C\C=C\[C@H](C)[C@H](O)[C@@H](C)[C@@H](O)[C@@H](C)[C@H](OC(C)=O)[C@@H]1C [Example 4, 3-[4-(3-Carboxy-1-cyclopropl-6-fluoro-4-oxo-1,4-dihydroquinolin-7-yl)piperazin-1-yl-aminomethylenyl]rifamycin SV] yielded an MIC [1] of 0.008 to 1 µg/mL (≈ 0.00759 to 0.949 µM), an MIC [2] of 0.06 to 16 µg/mL (≈ 0.0569 to 15.2 µM) and an MIC [3] of 0.008 to 0.125 µg/mL (≈ 0.00759 to 0.119 µM). The MIC [4] was 0.008 to 0.1 µg/mL (≈ 0.00759 to 0.0949 µM), the MIC [5] was 0.008 to 0.06 µg/mL (≈ 0.00759 to 0.0569 µM) and the MIC [6] was 0.008 to 0.03 µg/mL (≈ 0.00759 to 0.0285 µM). For the same molecule, the MIC [7] was 0.125 to 4 µg/mL (≈ 0.119 to 3.79 µM).
COc1c(N2CCC(N3CCN(/N=C/c4c5c(O)c6c(O)c(C)c7c(c6c4O)C(=O)[C@@](C)(O/C=C/[C@H](OC)[C@@H](C)[C@@H](OC(C)=O)[C@H](C)[C@H](O)[C@H](C)[C@@H](O)[C@@H](C)/C=C/C=C(/C)C(=O)N5)O7)CC3)CC2)c(F)cc2c(=O)c(C(=O)O)cn(C3CC3)c12 [Example 27, 3-{4-[1-(3-Carboxy-1-cyclopropyl-6-fluoro-8-methoxy-4-oxo-1,4-dihydroquinolin-7-yl)-piperidin-4-yl]-piperazin-1-yl-aminomethylenyl}-rifamycin SV] showed an MIC [1] of 0.008 to 1 µg/mL (≈ 0.00685 to 0.857 µM), an MIC [2] of 0.06 to 16 µg/mL (≈ 0.0514 to 13.7 µM) and an MIC [3] of 0.008 to 0.125 µg/mL (≈ 0.00685 to 0.107 µM). It also gave an MIC [4] of 0.008 to 0.1 µg/mL (≈ 0.00685 to 0.0857 µM), an MIC [5] of 0.008 to 0.06 µg/mL (≈ 0.00685 to 0.0514 µM) and an MIC [6] of 0.008 to 0.03 µg/mL (≈ 0.00685 to 0.0257 µM). The MIC [7] was 0.125 to 4 µg/mL (≈ 0.107 to 3.43 µM).
